In brackets after ≈: the same amount, converted by molar mass. Where a name gives a salt, the structure may show the parent alone.
What was measured:
thrombocyte aggregation [1] = conditions: background statement; cited from earlier work
serotonin = conditions: background statement; cited from earlier work
thrombocyte aggregation [2] = test: Thrombocyte aggregation inhibiting activity (ADP-induced, platelet-rich plasma); assay type: cell-based, beagle dogs
Protocol: Thrombocyte aggregation was induced experimentally in platelet-rich plasm (PRP) of beagle dogs by in vitro administration of adenosine diphosphate (ADP) in a final concentration of 2.5×10^-6 and was measured by means of a universal aggregometer (manufactured by B. Braun/Melsungen). An Eppendorf Photometer recorded the change in the optical density of the plasma.
The following parameters were determined:
1. The angle, α, between the tangent at the starting point of the curve and the horizontal axis,
2. The time, Tr, from the start of rotation (aggregation) until complete disaggregation,
3. The maximum amplitude (Ma) of the aggregation curve as the difference between starting transmission and maximum transmission.

[3] = test system: serotonin spasm in the isolated uterus of rats; test: Test b: serotonin antagonism in the isolated uterus of rats; assay type: cell-based, rats (Sprague-Dawley); conditions: isolated rat uterus; serotonin 10^-8 g/ml bath; 22° C.; read-out: ED50 (the source's name)
Protocol: (§1) For determination of the serotonin-antagonistic activity the following pharmacological tests were used: Test a: (Test according to Konzett and Rossler (Arch. exp. Path. Pharmak. 195 (1940) 71). Domestic albino guinea pigs were anaesthetised with 1.25 g/kg of urethane intraperitoneally (i.p.). Bronchial resistance was recorded in the open thorax by a recorder ("bronchotransducer") manufactured by the firm Ugo Basile (Milan); respiratory frequency was kept constant by artificial respiration at a frequency of 58 strokes/minute, the inflation pressure was 9 cm H2 O column. To induce bronchospasms, 5 to […] of serotonin (as serotonin-creatinine sulphate) were injected into one of the jugular veins every 15 minutes in a volume of 0.1 ml/kg body weight. The test substances were administered in a volume of 1 ml/kg either intravenously within 30 seconds, 2 minutes before generation of the serotonin spasm or intraduodenally or orally by oesphageal tube 15 minutes before the spasm. […] The results are given in Table I. Test b: (Serotonin antagonism in the isolated uterus of rats according to Robert A. Turner: Screening Methods in Pharmacology, Academic Press 1965 (New York and London)) Female Sprague-Dawley rats with a weight of 180 to 240 g were given intraperitoneally 2 mg of Oestromon (Merck, Darmstadt) 24 hours before extraction of the uterus in order to induce oestrus. The organ bath was kept at 22° C. and contained a Tyrode solution having a specific composition. The test substance was added to the bath in aqueous solution with a total volume of 0.1 ml. The serotonin concentration administered was 10^-8 g/ml bath. The ED50 value corresponded to the dose by which a serotonin spasm is inhibited by 50%. Test c: (5-Hydroxy-L-tryptophan antagonism in mice). A single administration of 5-hydroxy-L-tryptophan causes in mice a strong increase in defecation due to the increased biosynthesis of serotonin from exogenically supplied amino acids. This defecation effect can be reduced by serotonin antagonists. The test substances were administered orally 45 minutes before administration of the tryptophan. The tryptophan dose was 40 mg/kg i.p.

[4] = test system: serotonin spasm (bronchospasm); test: Test a: inhibition of serotonin-induced bronchospasm (Konzett and Rossler); assay type: in vivo; conditions: Cavia porcellus, guinea pigs
Protocol: as §1

5-Hydroxy-L-tryptophan = test: Test c: 5-Hydroxy-L-tryptophan antagonism in mice (defecation); assay type: in vivo; conditions: 5-hydroxy-L-tryptophan 40 mg/kg i.p.
Protocol: as §1
Evaluation was carried out 1 hour after administration of the preparation by measurement of the quantity of faeces produced. A reduction in this quantity by not more than 25% of the control is indicated, according to the result, by 0 or (+), from 25 to 50% by +, from 50 to 75% by ++ and over 75% +++ (see Table I).

rats = conditions: i.v., Speigt and Avery, Drugs 3, 159-203 (1972), 10080 min; cited from earlier work
mice = conditions: i.v., Speigt and Avery, Drugs 3, 159-203 (1972), 10080 min; cited from earlier work
Acute toxicity, rats = conditions: rat, in vivo, iv, mortality within 7 days
Text: (§2) Table III sets out for some compounds, the toxicity determined in mice and rats after intraperitoneal and intravenous administration over the mortality occurring within 7 days as LD50 or LD50 range.

Acute toxicity, mice = conditions: mouse, in vivo, mortality within 7 days
Text: as §2

[5] = pH value of aqueous solution; assay type: physicochemical; conditions: for pH value of a 0.1% aqueous solution: 0.1% solution
[6] = 0.25 h, i.d. (intraduodenal), 15 minutes after administration
[7] = iv, 2 min, i.v., 2 minutes after injection
[8] = po, 0.25 h, p.o., 15 minutes after administration
[9] = Canis lupus familiaris, final concentration 10^-4 g/ml, read-out: Change of Ma in %
[10] = final concentration 3 × 10^-5 g/ml

Row | Compound | Ma, maximum amplitude of the aggregation curve (thrombocyte aggregation [2]; final concentration 10^-4 g/ml) | Tr, time from start of rotation (aggregation) until complete disaggregation (thrombocyte aggregation [2]; final concentration 10^-4 g/ml) [min] | angle α between the tangent at the starting point of the curve and the horizontal axis (thrombocyte aggregation [2]; final concentration 10^-4 g/ml) | IC50 [3] [ng/mL] | ED50 [4, 6] [mg/kg] | ED50 [4, 7] [mg/kg] | Strength of activity (reduction in quantity of faeces) (5-Hydroxy-L-tryptophan; 20 mg/kg p.o.) | inhibition at 100 µg/mL (thrombocyte aggregation [2]; [9]) [%] | LD50 at 168 h (Acute toxicity, mice; iv) [mg/kg] | other results
1 | CN(C)CCCOC1(Cc2ccccc2)CCCCCC1 [Bencyclane] |  |  |  |  |  |  |  |  |  | inhibition of thrombocyte aggregation (thrombocyte aggregation [1]): inhibiting thrombocyte aggregation; serotonin antagonism (serotonin): weak serotonin antagonism
2 | CN(C)CCCOC1(Cc2ccccc2)CCCCCC1 [Fludilate, reference compound] | 324 | 2.6 | 85.2 |  |  |  |  |  |  | Change of Ma in % (thrombocyte aggregation [2]; final concentration 10^-4 g/ml): -34%
3 | CN1CCC(=C2c3ccccc3CCc3sccc32)CC1 [Pizotyline-HCl, reference compound] |  |  |  | 1 to 10 | 0.01 to 0.1 | 0.01 to 0.05 | + (from 25 to 50%) |  |  | ED50 [4, 8]: 0.5 to 1 mg/kg; LD50 (rats): 17 ± 1.1 mg/kg; LD50 (mice): 43 ± 1.8 mg/kg
4 | CN1CCC(=C2c3ccccc3CCc3sccc32)CC1 [Pizotyline] |  |  |  |  |  |  |  |  |  | serotonin antagonism (serotonin): serotonin-antagonistic activities
5 | CC1(C)CC(=O)N(CCCN2CCN(c3ccccc3)CC2)C(=O)N1 [compound 9] | 483 | 4.0 | 87.0 | 1 to 10 (≈ 2.9 to 29 nM) | 0.01 to 0.03 | 0.003 to 0.01 |  | 20 | 83 | ED50 [4, 8]: 0.1 to 0.3 mg/kg; LD50 at 168 h (Acute toxicity, rats; for the base): 60 mg/kg; inhibition at 30 µg/mL (thrombocyte aggregation [2]; Canis lupus familiaris, final concentration 3 × 10^-5 g/ml, read-out: Change of Ma in %): 13%; inhibition at 10 µg/mL (thrombocyte aggregation [2]; Canis lupus familiaris, final concentration 10^-5 g/ml, read-out: Change of Ma in %): 11%; Ma, maximum amplitude of the aggregation curve (thrombocyte aggregation [2]; [10]): 523; Tr, time from start of rotation (aggregation) until complete disaggregation (thrombocyte aggregation [2]; [10]): 4.3 min; angle α between the tangent at the starting point of the curve and the horizontal axis (thrombocyte aggregation [2]; [10]): 86.6; Ma, maximum amplitude of the aggregation curve (thrombocyte aggregation [2]; final concentration 10^-5 g/ml): 535; Tr, time from start of rotation (aggregation) until complete disaggregation (thrombocyte aggregation [2]; final concentration 10^-5 g/ml): 4.6 min; angle α between the tangent at the starting point of the curve and the horizontal axis (thrombocyte aggregation [2]; final concentration 10^-5 g/ml): 86.5; LD50 at 168 h (Acute toxicity, mice; ip, for the base): 100 to 300 mg/kg
6 | CC1(C)CC(=O)N(CCCN2CCN(c3ccc(F)cc3)CC2)C(=O)N1 [compound 11] |  |  |  |  |  | 0.01 to 0.03 |  |  |  | LD50 at 168 h (Acute toxicity, mice; ip): 100 to 300 mg/kg
7 | CC1(C)CC(=O)N(CCCN2CCN(c3ccccc3)CC2)C(=S)N1 [compound 16] | 315 | 1.8 | 86.3 | 1 to 10 (≈ 2.77 to 27.7 nM) | 0.3 | 0.01 to 0.03 | + (from 25 to 50%) | 42 | 40 to 63 | ED50 [4, 8]: ~0.3 mg/kg; Strength of activity (reduction in quantity of faeces) (5-Hydroxy-L-tryptophan; 10 mg/kg p.o.): + (from 25 to 50%); LD50 at 168 h (Acute toxicity, mice; ip): 200 to 400 mg/kg
8 | CC1NC(=O)N(CCCN2CCN(c3ccccc3)CC2)C(=O)C1C (stereo not shown) [compound 17] | 344 | 2.3 | 85.9 | 1 to 10 (≈ 2.9 to 29 nM) | 0.01 to 0.03 | 0.001 to 0.003 | ++ (from 50 to 75%) | 18 | 54 | LD50 at 168 h (Acute toxicity, rats): 25 to 40 mg/kg; Strength of activity (reduction in quantity of faeces) (5-Hydroxy-L-tryptophan; 10 mg/kg p.o.): + (from 25 to 50%)
9 | CC1(C)CC(=O)N(CCN2CCN(c3ccccc3)CC2)C(=S)N1 [compound 18] | 328 | 3.0 | 85.8 | 0.1 to 1 (≈ 0.289 to 2.89 nM) | ~0.03 | 0.001 to 0.003 | ++ (from 50 to 75%) | 19 | 100 to 150 | LD50 at 168 h (Acute toxicity, rats): 66 mg/kg; Strength of activity (reduction in quantity of faeces) (5-Hydroxy-L-tryptophan; 10 mg/kg p.o.): ++ (from 50 to 75%); pH value of a 0.1% aqueous solution [5]: about 4.3
10 | CN1C(=O)N(CCCN2CCN(c3ccccc3)CC2)C(=O)CC1(C)C [compound 26] |  |  |  |  |  |  |  |  |  | pH value of a 0.1% aqueous solution [5]: around 3.0
11 | CC1(C)CC(=O)N(CCN2CCN(c3ccccc3)CC2)C(=S)N1 [dihydrochloride hydrate] |  |  |  |  |  |  |  |  |  | pH value of a 10% aqueous solution ([5]; 10% aqueous solution): around 1.8
12 | CC[C@@H](CO)NC(=O)[C@@H]1C=C2c3cccc4c3c(cn4C)C[C@H]2N(C)C1 [methysergide] |  |  |  |  |  |  |  |  |  | serotonin antagonism (serotonin): serotonin-antagonistic activities

— patent publication US4216216A, “Aromatic piperazinyl substituted dihydrouracils” (Hoechst Aktiengesellschaft, priority 1977, dated 1980)
